Consider 19 compounds from US20260158009A1 (GENZYME CORPORATION, priority 2023, published 2026).

In test [1] the target is T1, hRIPK1 (aa 1-375) fusion protein (Homo sapiens, UniProt Q13546).
T1 construct: hRIPK1 (aa 1-375) fusion protein
T1 sequence (Q13546 1-375): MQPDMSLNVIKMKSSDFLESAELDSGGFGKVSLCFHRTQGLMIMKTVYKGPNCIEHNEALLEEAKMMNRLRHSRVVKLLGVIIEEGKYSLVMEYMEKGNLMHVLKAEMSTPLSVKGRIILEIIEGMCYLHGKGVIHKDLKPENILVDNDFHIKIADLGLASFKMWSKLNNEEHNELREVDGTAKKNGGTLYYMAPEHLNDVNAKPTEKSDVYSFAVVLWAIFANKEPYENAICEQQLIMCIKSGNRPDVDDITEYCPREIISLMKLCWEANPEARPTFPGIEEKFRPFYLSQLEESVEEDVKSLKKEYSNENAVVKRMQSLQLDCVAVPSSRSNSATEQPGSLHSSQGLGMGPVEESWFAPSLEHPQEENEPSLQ
Nature of the test: ADP-Glo kinase assay: catalytic activity of RIPK1 (autophosphorylation, conversion of ATP to ADP). The format is biochemical. A digest of the protocol: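 The readout was ADP-Glo luminescence after a 240 min rt autophosphorylation reaction with 50 μM ATP, following 30 min preincubation of 3.6 μg/ml hRIPK1 (aa 1-375) fusion with compound at 33300-1.69 nM final in 1% DMSO. Values came from Levenberg-Marquardt nonlinear fits.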
For orientation: ADP-Glo first removes unused ATP, then detects ADP through luciferase.

A further test concerns U937 cells. Nature of the test: Cellular assay in U937 cells: activity of RIPK1 inhibitors on TNFα/zVAD.fmk-induced cell death (necroptosis), CellTiter 96 AQueous (MTS) readout. It counts as cell-based. The following applies: Homo sapiens, U-937. A digest of the protocol: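 Necroptosis was measured by viable-cell MTS reduction (4 h, absorbance 490 nm) after overnight (18–24 h) 37° C culture. Cell suspensions of U937 cells carried TNFα (100 ng/ml) plus zVAD.fmk (50 μM) before compound was added. A 10-point curve (10 μM–0.26 nM or 1 μM–0.07 nM) was run in duplicate, normalised to the control lacking TNFα/zVAD.fmk.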

Structures are written as SMILES.

Take `Cc1cn2cc(C[C@H]3CC[C@H](C(=O)N4OCC[C@H]4c4cc(F)cc(C#N)c4)CC3)ccc2n1` [compound 225, trans-3-fluoro-5-[(3S)-2-[4-[(2-methylimidazo[1,2-a]pyridin-6-yl)methyl]cyclohexanecarbonyl]isoxazolidin-3-yl]benzonitrile]: the IC50 in test [1] came to 19 nM; in the test on U937 cells, 7 nM.

For the compound `O=C([C@H]1CC[C@H](Cc2cnccn2)CC1)N1OCC[C@H]1c1cnccn1` [compound 246, trans-[(3S)-3-pyrazin-2-ylisoxazolidin-2-yl]-[4-(pyrazin-2-ylmethyl)cyclohexyl]methanone], the 50% inhibitory concentration (IC50) worked out at 150 nM in test [1] and 918 nM with U937 cells.

For `COc1ccc2c(ccn2C[C@H]2CC[C@H](C(=O)N3OCC[C@H]3c3cc(F)cc(C#N)c3)CC2)n1` [compound 120, trans-3-fluoro-5-[(3S)-2-[4-[(5-methoxypyrrolo[3,2-b]pyridin-1-yl)methyl]cyclohexanecarbonyl]isoxazolidin-3-yl]benzonitrile], the IC50 in test [1] was 41 nM; in the test on U937 cells it was 6 nM.

For the compound `Cc1ncc(C[C@H]2CC[C@H](C(=O)N3OCC[C@H]3c3cnc(C)c(F)c3)CC2)c(C(F)(F)F)n1` [compound 399, [(3S)-3-(5-fluoro-6-methylpyridin-3-yl)-1,2-oxazolidin-2-yl]-[4-[[2-methyl-4-(trifluoromethyl)pyrimidin-5-yl]methyl]cyclohexyl]methanone], the results for the IC50 (in test [1]; in the test on U937 cells) were 85 nM and 274 nM, respectively.

As to `Cc1ccc([C@@H]2CCON2C(=O)[C@H]2CC[C@H](Cc3cc(F)c4nnc(C)n4c3)CC2)cn1` [compound 364, trans-[4-(8-Fluoro-3-methyl-[1,2,4]triazolo[4,3-a]pyridin-6-ylmethyl)-cyclohexyl]-[(S)-3-(6-methyl-pyridin-3-yl)-isoxazolidin-2-yl]-methanone], the figures for the IC50 (in test [1]; in the test on U937 cells) were 234 nM and 491 nM, respectively.

With `Cc1ccc(C[C@H]2CC[C@H](C(=O)N3OCC[C@H]3c3cc(F)cc(F)c3)CC2)nn1` [compound 304, trans-[(3S)-3-(3,5-difluorophenyl)isoxazolidin-2-yl]-[4-[(6-methylpyridazin-3-yl)methyl]cyclohexyl]methanone], the IC50 in test [1] came out at 23 nM; with U937 cells, 33 nM.

With `COc1cncc([C@@H]2CCON2C(=O)[C@H]2CC[C@H](Cn3ccc4ccc(C#N)cc43)CC2)n1` [compound 241, trans-1-[[4-[(3S)-3-(6-methoxypyrazin-2-yl)isoxazolidine-2-carbonyl]cyclohexyl]methyl]indole-6-carbonitrile], the figures for the IC50 (in test [1]; in the test on U937 cells) were 148 nM and 28 nM, respectively.

As for `Cc1nc2ccc(C[C@H]3CC[C@H](C(=O)N4OCC[C@H]4c4ccc(F)c(F)c4)CC3)cn2n1` [compound 261, trans-[(3S)-3-(3,4-difluorophenyl)isoxazolidin-2-yl]-[4-[(2-methyl-[1,2,4]triazolo[1,5-a]pyridin-6-yl)methyl]cyclohexyl]methanone], the IC50 in test [1] turned out to be 23 nM; with U937 cells, 17 nM.

Regarding `Cn1cc(C[C@H]2CC[C@H](C(=O)N3OCC[C@H]3c3cc(F)cc(F)c3)CC2)cn1` [compound 236, trans-[(3S)-3-(3,5-difluorophenyl)isoxazolidin-2-yl]-[4-[(1-methylpyrazol-4-yl)methyl]cyclohexyl]methanone], the IC50 in test [1] amounted to 20 nM; in the test on U937 cells, 4 nM.

Consider `N#Cc1cc(F)cc([C@@H]2CCON2C(=O)[C@H]2CC[C@H](Cn3cnc4c(F)cc(C(N)=O)cc43)CC2)c1` [compound 80, trans-1-((4-((S)-3-(3-cyano-5-fluorophenyl)isoxazolidine-2-carbonyl)cyclohexyl)methyl)-4-fluoro-1H-benzo[d]imidazole-6-carboxamide], for which the IC50 in test [1] came to 60 nM; with U937 cells it was 745 nM.

`Cc1ccc([C@@H]2CCON2C(=O)[C@H]2CC[C@H](Cc3ccc4nc(N)nn4c3)CC2)cn1` [compound 391, [4-[(2-amino-[1,2,4]triazolo[1,5-a]pyridin-6-yl)methyl]cyclohexyl]-[(3S)-3-(6-methylpyridin-3-yl)-1,2-oxazolidin-2-yl]methanone]: the IC50 amounted to 63 nM in test [1] and 64 nM in the test with U937 cells.

For `O=C([C@H]1CC[C@H](Cc2cc(F)cc(CO)c2)CC1)N1OCC[C@H]1c1cnccn1` [compound 259, trans-[4-[[3-fluoro-5-(hydroxymethyl)phenyl]methyl]cyclohexyl]-[(3S)-3-pyrazin-2-ylisoxazolidin-2-yl]methanone], the figures for the IC50 (in test [1]; in the test on U937 cells) were 8 nM and 2 nM, respectively.

In the case of `Cc1cc2nnc(C)n2cc1C[C@H]1CC[C@H](C(=O)N2OCC[C@H]2c2cccc(F)c2)CC1` [compound 317, trans-[4-[(3,7-dimethyl-[1,2,4]triazolo[4,3-a]pyridin-6-yl)methyl]cyclohexyl]-[(3S)-3-(3-fluorophenyl)isoxazolidin-2-yl]methanone], the values for the IC50 (in test [1]; in the test with U937 cells) were 7 nM and 2 nM, respectively.

In the case of `Cc1ccc(C[C@H]2CC[C@H](C(=O)N3OCC[C@H]3c3cc(F)cc(F)c3)CC2)cc1C(N)=O` [compound 132, trans-5-[[4-[(3S)-3-(3,5-difluorophenyl)isoxazolidine-2-carbonyl]cyclohexyl]methyl]-2-methyl-benzamide], the IC50 in test [1] was determined as 13 nM; in the test with U937 cells it was 4 nM.

`O=C([C@H]1CC[C@H](Cn2cnc3cc(F)ccc32)CC1)N1OCC[C@H]1c1cc(F)cc(F)c1` [compound 49, trans-((S)-3-(3,5-difluorophenyl)isoxazolidin-2-yl)(4-((5-fluoro-1H-benzo[d]imidazol-1-yl)methyl)cyclohexyl)methanone]: the IC50 in test [1] worked out at 21 nM; in the test on U937 cells, 8 nM.

As to `NC(=O)c1cc2ncn(C[C@H]3CC[C@H](C(=O)N4OCC[C@H]4c4cc(F)cc(F)c4)CC3)c2cc1F` [compound 75, trans-1-((4-((S)-3-(3,5-difluorophenyl)isoxazolidine-2-carbonyl)cyclohexyl)methyl)-6-fluoro-1H-benzo[d]imidazole-5-carboxamide], the values for the IC50 (in test [1]; in the test with U937 cells) were 27 nM and 36 nM, respectively.

In the case of `N#Cc1cc(F)cc([C@@H]2CCON2C(=O)[C@H]2CC[C@H](Cn3ncc4cc(F)c(C#N)cc43)CC2)c1` [compound 87, trans-1-((4-((S)-3-(3-cyano-5-fluorophenyl)isoxazolidine-2-carbonyl)cyclohexyl)methyl)-5-fluoro-1H-indazole-6-carbonitrile], the IC50 in test [1] was found to be 18 nM; in the test on U937 cells it was 3 nM.

As for `N#Cc1cc(F)cc([C@@H]2CCON2C(=O)[C@H]2CC[C@H](Cc3cc(F)cc(CCO)c3)CC2)c1` [compound 282, trans-3-fluoro-5-[(3S)-2-[4-[[3-fluoro-5-(2-hydroxyethyl)phenyl]methyl]cyclohexanecarbonyl]isoxazolidin-3-yl]benzonitrile], the IC50 in test [1] was 18 nM; in the test with U937 cells, 10 nM.

For the compound `Cc1nc([C@@H]2CCON2C(=O)[C@H]2CC[C@H](Cn3ncc4cc(C#N)ccc43)CC2)cs1` [compound 202, trans-1-[[4-[(3S)-3-(2-methylthiazol-4-yl)isoxazolidine-2-carbonyl]cyclohexyl]methyl]indazole-5-carbonitrile], the IC50 came to 19 nM in test [1] and 39 nM in the test with U937 cells.

The IC50 is the concentration that gives 50% inhibition. A low value points to greater potency in that assay.
